# Reference: paper PMC7997453 (Pharmaceuticals, 2021)
# Read-outs that look alike come from different tables or passages of the source.
# What was measured:
# CYP3A4 [1] = biological target: T1, CYP3A4 (Homo sapiens, UniProt P08684); assay: Time-dependent inhibition (TDI) assay, testosterone-6β-hydroxylation, CYP3A5*3/*3 HLM; assay type: biochemical
# Description: (§1) Testosterone-6β-hydroxylation was used to measure the activity of CYP3A4 and CYP3A5. […] With the corresponding double-reciprocal plot, the derived kinetic constants from the inactivation experiments were estimated.
# (§2) Two-step incubation was performed to evaluate the TDI assay. […] After pre-incubation for 3 min at 37 °C in a shaking water bath, the enzymatic reaction was started upon adding NADPH (1 mM) with various pre-reaction time (0, 5, 10, 20, 30 min). For TDI on CYP3A5, NADPH (1 mM) was added to the incubation which contained CYP3A5*1/*3 HLM (0.5 mg/mL) and CYP3cide (1.2 μM) after being pre-warmed for 3 min. […] Next step, an aliquot (20 μL) of the primary pre-reaction mixture was transferred to 180 μL of the secondary incubation system which consisted of PBS (0.1 M), testosterone (200 μM) and NADPH (1 mM). The secondary reaction was incubated at 37 °C for 10 min and terminated by adding 400 μL ice-cold acetonitrile containing prednisolone as the internal standard (0.3150 μM for CYP3A5*3/*3 HLM incubation and 0.07875 μM for CYP3A5*1/*3 HLM incubation). […] The observed inactivation rate of the affected enzyme (kobs) was the negative slope of the linear regression. kinact and KI were calculated using Equation (1) by the double-reciprocal plot. I represents the concentration of the inhibitor. (1) kobs=kinact×I/[…]
# CYP3A4 [2] = biological target: T1, CYP3A4; assay: Reversible inhibition (RI) assay on tacrolimus metabolism, CYP3A5*3/*3 HLM
# Description: (§3) The reactions were started with the addition of nicotinamide adenine dinucleotide phosphate (NADPH, 1 mM) and stopped 10 min later upon adding a double volume of ice-cold methanol. […] Reactions were terminated with the same method as the CYP3A4 group. All incubations were carried out in triplicate. […] Dixon plots were used to analyze the inhibitory type of RI assay and Ki value.
# [3] = set-up: method as in https://pubchem.ncbi.nlm.nih.gov/; conditions: ref https://pubchem.ncbi.nlm.nih.gov/; cited from earlier work
# [4] = set-up: method as in PMID 24195812; conditions: rats; oral dose of 0.024 mM/kg STA or SIA; cited from earlier work
# CYP3A5 [5] = biological target: T2, CYP3A5 (Homo sapiens, UniProt P20815); assay: Time-dependent inhibition (TDI) assay, testosterone-6β-hydroxylation, CYP3A5*1/*3 HLM with CYP3cide; assay type: biochemical
# T2 sequence (P20815 whole entry): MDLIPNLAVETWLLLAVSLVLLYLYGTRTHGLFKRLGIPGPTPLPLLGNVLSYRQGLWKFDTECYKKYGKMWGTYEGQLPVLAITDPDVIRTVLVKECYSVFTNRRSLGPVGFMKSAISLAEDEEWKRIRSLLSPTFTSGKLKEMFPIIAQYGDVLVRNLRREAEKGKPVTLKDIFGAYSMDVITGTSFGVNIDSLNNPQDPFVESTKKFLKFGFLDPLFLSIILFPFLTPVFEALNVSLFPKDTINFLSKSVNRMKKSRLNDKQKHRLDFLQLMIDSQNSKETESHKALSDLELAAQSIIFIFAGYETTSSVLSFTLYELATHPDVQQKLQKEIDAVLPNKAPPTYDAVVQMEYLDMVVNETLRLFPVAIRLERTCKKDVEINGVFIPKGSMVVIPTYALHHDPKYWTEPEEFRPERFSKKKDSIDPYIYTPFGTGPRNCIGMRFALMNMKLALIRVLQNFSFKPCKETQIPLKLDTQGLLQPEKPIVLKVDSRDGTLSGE
# Description: as §1, §2
# [6] = tissue to plasma partition coefficients; conditions: In-house data
# Text: All PBPK simulations were constructed using the population-based ADME(absorption, distribution, metabolism, and excretion) simulator (version 13.1.1, Simcyp® Ltd., Certara, Sheffield, UK).
# [7] = ref supplement 2; cited from earlier work
# CYP3A = conditions: rat liver microsomes, cited from earlier work
# [8] = intrinsic clearance in human liver microsomes; assay type: in vitro ADME; conditions: In-house data, read-out: CLint,HLM
# CYP3A5 [9] = biological target: T2, CYP3A5; assay: Reversible inhibition (RI) assay on tacrolimus metabolism, CYP3A5*1/*3 HLM with CYP3cide
# Description: as §3
# [10] = ref supplement 1; cited from earlier work
# [11] = set-up: method as in PMID 25028625; conditions: cited from earlier work
# [12] = 2 μM SIA, pre-incubation 10 min
# [13] = 2 μM SIA, pre-incubation 20 min
# [14] = 2 μM SIA, pre-incubation 30 min
# [15] = 4 μM SIA, pre-incubation 10 min
# [16] = 4 μM SIA, pre-incubation 20 min
# [17] = 4 μM SIA, pre-incubation 30 min
# [18] = 8 μM SIA, pre-incubation 10 min
# [19] = 8 μM SIA, pre-incubation 20 min
# [20] = 8 μM SIA, pre-incubation 30 min
# [21] = 16 μM SIA, pre-incubation 0 min
# [22] = 16 μM SIA, pre-incubation 5 min
# [23] = 16 μM SIA, pre-incubation 10 min
# [24] = 16 μM SIA, pre-incubation 20 min
# [25] = 16 μM SIA, pre-incubation 30 min
# T1 sequence (P08684 whole entry): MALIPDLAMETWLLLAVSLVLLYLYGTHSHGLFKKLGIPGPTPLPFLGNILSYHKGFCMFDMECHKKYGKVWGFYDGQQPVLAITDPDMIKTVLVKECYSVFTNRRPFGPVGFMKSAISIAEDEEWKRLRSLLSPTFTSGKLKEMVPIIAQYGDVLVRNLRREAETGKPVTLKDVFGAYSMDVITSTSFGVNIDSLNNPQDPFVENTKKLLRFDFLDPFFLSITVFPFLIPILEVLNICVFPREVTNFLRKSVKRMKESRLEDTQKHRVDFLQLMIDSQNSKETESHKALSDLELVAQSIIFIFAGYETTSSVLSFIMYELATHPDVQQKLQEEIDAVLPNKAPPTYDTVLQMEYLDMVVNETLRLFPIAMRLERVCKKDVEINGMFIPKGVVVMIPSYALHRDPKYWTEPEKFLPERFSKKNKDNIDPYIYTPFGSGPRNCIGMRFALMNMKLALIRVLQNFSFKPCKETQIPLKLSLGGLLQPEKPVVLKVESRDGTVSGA
structure (smiles),measurement,setting,value
"COc1cc2c(c(OC)c1OC)-c1c(cc(OC)c(OC)c1OC)C[C@H](C)[C@H](C)C2 [SIA, schisandrin A]",TDI profile on CYP3A4 (in words),CYP3A4 [1],slight TDI
same,"log of percentage of control activity, Figure 4A, Mean","CYP3A4 [1]; 2 μM SIA, pre-incubation 0 min",4.6052
same,"log of percentage of control activity, Figure 4A, Mean","CYP3A4 [1]; 2 μM SIA, pre-incubation 5 min",4.5754
same,"log of percentage of control activity, Figure 4A, Mean",CYP3A4 [1]; [12],4.5165
same,"log of percentage of control activity, Figure 4A, Mean",CYP3A4 [1]; [13],4.4602
same,"log of percentage of control activity, Figure 4A, Mean",CYP3A4 [1]; [14],4.3520
same,"log of percentage of control activity, Figure 4A, Mean","CYP3A4 [1]; 4 μM SIA, pre-incubation 0 min",4.6052
same,"log of percentage of control activity, Figure 4A, Mean","CYP3A4 [1]; 4 μM SIA, pre-incubation 5 min",4.5505
same,"log of percentage of control activity, Figure 4A, Mean",CYP3A4 [1]; [15],4.4420
same,"log of percentage of control activity, Figure 4A, Mean",CYP3A4 [1]; [16],4.3925
same,"log of percentage of control activity, Figure 4A, Mean",CYP3A4 [1]; [17],4.2490
same,"log of percentage of control activity, Figure 4A, Mean","CYP3A4 [1]; 8 μM SIA, pre-incubation 0 min",4.6029
same,"log of percentage of control activity, Figure 4A, Mean","CYP3A4 [1]; 8 μM SIA, pre-incubation 5 min",4.5164
same,"log of percentage of control activity, Figure 4A, Mean",CYP3A4 [1]; [18],4.3979
same,"log of percentage of control activity, Figure 4A, Mean",CYP3A4 [1]; [19],4.2781
same,"log of percentage of control activity, Figure 4A, Mean",CYP3A4 [1]; [20],4.1876
same,"log of percentage of control activity, Figure 4A, Mean",CYP3A4 [1]; [21],4.6052
same,"log of percentage of control activity, Figure 4A, Mean",CYP3A4 [1]; [22],4.4518
same,"log of percentage of control activity, Figure 4A, Mean",CYP3A4 [1]; [23],4.3776
same,"log of percentage of control activity, Figure 4A, Mean",CYP3A4 [1]; [24],4.2397
same,"log of percentage of control activity, Figure 4A, Mean",CYP3A4 [1]; [25],4.0738
same,kinact/KI,CYP3A4 [1]; CYP3A4,125 M⁻¹ s⁻¹
same,KI,"CYP3A4 [1]; CYP3A4, testosterone-6β-hydroxylation",2.54 µM
same,kinact,"CYP3A4 [1]; human, CYP3A5*3/*3 human liver microsomes, probe testosterone (200 μM), CYP3A4, testosterone-6β-hydroxylation",0.000317 s⁻¹
same,"Dixon plot data point, Figure 2C, Mean","CYP3A4 [2]; 2.4 μM SIA, 0.2 μM tacrolimus",20.0000
same,"Dixon plot data point, Figure 2C, Mean","CYP3A4 [2]; 2.4 μM SIA, 0.4 μM tacrolimus",10.0000
same,"Dixon plot data point, Figure 2C, Mean","CYP3A4 [2]; 2.4 μM SIA, 0.8 μM tacrolimus",3.3452
same,"Dixon plot data point, Figure 2C, Mean","CYP3A4 [2]; 2.4 μM SIA, 1.6 μM tacrolimus",1.4662
same,"Dixon plot data point, Figure 2C, Mean","CYP3A4 [2]; 7.2 μM SIA, 0.4 μM tacrolimus",10.0565
same,"Dixon plot data point, Figure 2C, Mean","CYP3A4 [2]; 7.2 μM SIA, 1.6 μM tacrolimus",1.7598
same,"Dixon plot data point, Figure 2C, Mean","CYP3A4 [2]; 12 μM SIA, 0.2 μM tacrolimus",20.3445
same,"Dixon plot data point, Figure 2C, Mean","CYP3A4 [2]; 12 μM SIA, 0.4 μM tacrolimus",9.8175
same,"Dixon plot data point, Figure 2C, Mean","CYP3A4 [2]; 12 μM SIA, 0.8 μM tacrolimus",4.5304
same,"Dixon plot data point, Figure 2C, Mean","CYP3A4 [2]; 12 μM SIA, 1.6 μM tacrolimus",1.6431
same,reversible inhibition on CYP3A4 (in words),"CYP3A4 [2]; CYP3A5*3/*3 HLM, substrate tacrolimus",little reversible inhibition
same,HBD,[3],0
same,PSA,[3],55.38 Å2
same,increase of systemic exposure of tacrolimus,[4],2.37 fold
same,TDI profile on CYP3A5 (in words),CYP3A5 [5],slight TDI
same,"log of percentage of control activity, Figure 4C, Mean","CYP3A5 [5]; 2 μM SIA, pre-incubation 0 min",4.6052
same,"log of percentage of control activity, Figure 4C, Mean","CYP3A5 [5]; 2 μM SIA, pre-incubation 5 min",4.5539
same,"log of percentage of control activity, Figure 4C, Mean",CYP3A5 [5]; [12],4.5218
same,"log of percentage of control activity, Figure 4C, Mean",CYP3A5 [5]; [13],4.4427
same,"log of percentage of control activity, Figure 4C, Mean",CYP3A5 [5]; [14],4.3791
same,"log of percentage of control activity, Figure 4C, Mean","CYP3A5 [5]; 4 μM SIA, pre-incubation 0 min",4.6052
same,"log of percentage of control activity, Figure 4C, Mean","CYP3A5 [5]; 4 μM SIA, pre-incubation 5 min",4.4998
same,"log of percentage of control activity, Figure 4C, Mean",CYP3A5 [5]; [15],4.5031
same,"log of percentage of control activity, Figure 4C, Mean",CYP3A5 [5]; [16],4.4869
same,"log of percentage of control activity, Figure 4C, Mean",CYP3A5 [5]; [17],4.2859
same,"log of percentage of control activity, Figure 4C, Mean","CYP3A5 [5]; 8 μM SIA, pre-incubation 0 min",4.6052
same,"log of percentage of control activity, Figure 4C, Mean","CYP3A5 [5]; 8 μM SIA, pre-incubation 5 min",4.4632
same,"log of percentage of control activity, Figure 4C, Mean",CYP3A5 [5]; [18],4.4150
same,"log of percentage of control activity, Figure 4C, Mean",CYP3A5 [5]; [19],4.4028
same,"log of percentage of control activity, Figure 4C, Mean",CYP3A5 [5]; [20],4.2282
same,"log of percentage of control activity, Figure 4C, Mean",CYP3A5 [5]; [21],4.5539
same,"log of percentage of control activity, Figure 4C, Mean",CYP3A5 [5]; [22],4.4523
same,"log of percentage of control activity, Figure 4C, Mean",CYP3A5 [5]; [23],4.3701
same,"log of percentage of control activity, Figure 4C, Mean",CYP3A5 [5]; [24],4.2585
same,"log of percentage of control activity, Figure 4C, Mean",CYP3A5 [5]; [25],4.1607
same,kinact/KI,CYP3A5 [5]; CYP3A5,113 M⁻¹ s⁻¹
same,KI,"CYP3A5 [5]; CYP3A5, testosterone-6β-hydroxylation",2.07 µM
same,kinact,"CYP3A5 [5]; human, CYP3A5*1/*3 human liver microsomes with CYP3cide, probe testosterone (200 μM), with CYP3cide ([…]), CYP3A5, testosterone-6β-hydroxylation",0.000233 s⁻¹
same,Kp,"[6]; adipose, read-out: Kp Adipose",36.4
same,Kp,"[6]; brain, read-out: Kp Brain",7.4
same,Kp,"[6]; gut, read-out: Kp Gut",210
same,Kp,"[6]; heart, read-out: Kp Heart",39.5
same,Kp,"[6]; kidney, read-out: Kp Kidney",5.9
same,Kp,"[6]; liver, read-out: Kp Liver",3.9
same,Kp,"[6]; lung, read-out: Kp Lung",19
same,Kp,"[6]; spleen, read-out: Kp Spleen",7.6
same,fu plasma,[7],0.0334
same,Ki,CYP3A; midazolam 1′-hydroxylation,5.83 µM
same,Ki,CYP3A; midazolam 4-hydroxylation,4.8 µM
same,microsomal CLint,[8],130 µL/min/mg
same,Ki,CYP3A5 [9],8.74 µM
same,"Dixon plot data point, Figure 2D, Mean","CYP3A5 [9]; 2.4 μM SIA, 0.2 μM tacrolimus",32.0000
same,"Dixon plot data point, Figure 2D, Mean","CYP3A5 [9]; 2.4 μM SIA, 0.4 μM tacrolimus",17.6167
same,"Dixon plot data point, Figure 2D, Mean","CYP3A5 [9]; 2.4 μM SIA, 0.8 μM tacrolimus",9.2000
same,"Dixon plot data point, Figure 2D, Mean","CYP3A5 [9]; 2.4 μM SIA, 1.6 μM tacrolimus",6.2790
same,"Dixon plot data point, Figure 2D, Mean","CYP3A5 [9]; 7.2 μM SIA, 0.4 μM tacrolimus",21.6176
same,"Dixon plot data point, Figure 2D, Mean","CYP3A5 [9]; 7.2 μM SIA, 1.6 μM tacrolimus",6.9243
same,"Dixon plot data point, Figure 2D, Mean","CYP3A5 [9]; 12 μM SIA, 0.2 μM tacrolimus",60.0000
same,"Dixon plot data point, Figure 2D, Mean","CYP3A5 [9]; 12 μM SIA, 0.4 μM tacrolimus",30.1990
same,"Dixon plot data point, Figure 2D, Mean","CYP3A5 [9]; 12 μM SIA, 0.8 μM tacrolimus",15.0500
same,"Dixon plot data point, Figure 2D, Mean","CYP3A5 [9]; 12 μM SIA, 1.6 μM tacrolimus",7.2381
same,Log Po:w,[10],5.265
Clc1ccccc1C(c1ccccc1)(c1ccccc1)n1ccnc1 [Clotrimazole],"inhibition on tacrolimus metabolism, CYP3A5 non-expresser patients versus expressers",[11],significantly greater inhibition
